# Data taken from the NIST ThermoML archive (doi:10.1016/j.jct.2005.05.003).
# Numbers after ± are expanded uncertainties.
# Test: mn = molality of the nth substance listed, in mol/kg
# Conditions: Liquid, Vibrating tube method
smiles,measurement,setting,value
[Ca+2].[Cl-].[Cl-] [calcium chloride] + CO,mass density,"298.27 K, 184 kPa, m1 = 2.393",977.23 ± 0.59 kg/m3
same,mass density,"298.27 K, 5004 kPa, m1 = 2.393",980.74 ± 0.6 kg/m3
same,mass density,"298.27 K, 9983 kPa, m1 = 2.393",984.25 ± 0.6 kg/m3
same,mass density,"298.27 K, 14989 kPa, m1 = 2.393",987.66 ± 0.6 kg/m3
same,mass density,"298.27 K, 19998 kPa, m1 = 2.393",990.95 ± 0.6 kg/m3
same,mass density,"298.27 K, 25001 kPa, m1 = 2.393",994.14 ± 0.61 kg/m3
same,mass density,"298.27 K, 30011 kPa, m1 = 2.393",997.26 ± 0.61 kg/m3
same,mass density,"298.27 K, 34980 kPa, m1 = 2.393",1000.22 ± 0.61 kg/m3
same,mass density,"298.27 K, 39985 kPa, m1 = 2.393",1003.15 ± 0.61 kg/m3
same,mass density,"298.28 K, 175 kPa, m1 = 0.2853",814.28 ± 0.51 kg/m3
same,mass density,"298.28 K, 179 kPa, m1 = 0.6588",848.89 ± 0.53 kg/m3
same,mass density,"298.28 K, 202 kPa, m1 = 0.1082",797.82 ± 0.5 kg/m3
same,mass density,"298.28 K, 4988 kPa, m1 = 0.6588",853.15 ± 0.53 kg/m3
same,mass density,"298.28 K, 5000 kPa, m1 = 0.2853",818.77 ± 0.52 kg/m3
same,mass density,"298.28 K, 5011 kPa, m1 = 0.1082",802.48 ± 0.51 kg/m3
same,mass density,"298.28 K, 9997 kPa, m1 = 0.6588",857.39 ± 0.54 kg/m3
same,mass density,"298.28 K, 10009 kPa, m1 = 0.2853",823.22 ± 0.53 kg/m3
same,mass density,"298.28 K, 10011 kPa, m1 = 0.1082",807.08 ± 0.52 kg/m3
same,mass density,"298.28 K, 14985 kPa, m1 = 0.2853",827.41 ± 0.54 kg/m3
same,mass density,"298.28 K, 15002 kPa, m1 = 0.1082",811.44 ± 0.53 kg/m3
same,mass density,"298.28 K, 15012 kPa, m1 = 0.6588",861.47 ± 0.55 kg/m3
same,mass density,"298.28 K, 19991 kPa, m1 = 0.1082",815.57 ± 0.55 kg/m3
same,mass density,"298.28 K, 20010 kPa, m1 = 0.6588",865.31 ± 0.56 kg/m3
same,mass density,"298.28 K, 20018 kPa, m1 = 0.2853",831.46 ± 0.55 kg/m3
same,mass density,"298.28 K, 24989 kPa, m1 = 0.2853",835.29 ± 0.56 kg/m3
same,mass density,"298.28 K, 24991 kPa, m1 = 0.6588",868.99 ± 0.57 kg/m3
same,mass density,"298.28 K, 24997 kPa, m1 = 0.1082",819.63 ± 0.56 kg/m3
same,mass density,"298.28 K, 29982 kPa, m1 = 0.2853",838.98 ± 0.58 kg/m3
same,mass density,"298.28 K, 29989 kPa, m1 = 0.1082",823.45 ± 0.58 kg/m3
same,mass density,"298.28 K, 29991 kPa, m1 = 0.6588",872.56 ± 0.57 kg/m3
same,mass density,"298.28 K, 34983 kPa, m1 = 0.6588",875.99 ± 0.58 kg/m3
same,mass density,"298.28 K, 34994 kPa, m1 = 0.2853",842.53 ± 0.59 kg/m3
same,mass density,"298.28 K, 35017 kPa, m1 = 0.1082",827.11 ± 0.59 kg/m3
same,mass density,"298.28 K, 39984 kPa, m1 = 0.6588",879.31 ± 0.59 kg/m3
same,mass density,"298.28 K, 39998 kPa, m1 = 0.1082",830.67 ± 0.61 kg/m3
same,mass density,"298.28 K, 40005 kPa, m1 = 0.2853",845.94 ± 0.6 kg/m3
same,mass density,"323.22 K, 232 kPa, m1 = 0.6588",824.35 ± 0.51 kg/m3
same,mass density,"323.22 K, 237 kPa, m1 = 2.393",952.79 ± 0.58 kg/m3
same,mass density,"323.22 K, 245 kPa, m1 = 0.1082",773.87 ± 0.49 kg/m3
same,mass density,"323.22 K, 4998 kPa, m1 = 0.6588",829.19 ± 0.52 kg/m3
same,mass density,"323.22 K, 5003 kPa, m1 = 2.393",956.69 ± 0.58 kg/m3
same,mass density,"323.22 K, 5013 kPa, m1 = 0.1082",779.2 ± 0.5 kg/m3
same,mass density,"323.22 K, 9984 kPa, m1 = 0.1082",784.43 ± 0.51 kg/m3
same,mass density,"323.22 K, 9988 kPa, m1 = 2.393",960.6 ± 0.59 kg/m3
same,mass density,"323.22 K, 10013 kPa, m1 = 0.6588",834.04 ± 0.53 kg/m3
same,mass density,"323.22 K, 14985 kPa, m1 = 2.393",964.38 ± 0.59 kg/m3
same,mass density,"323.22 K, 14994 kPa, m1 = 0.1082",789.4 ± 0.53 kg/m3
same,mass density,"323.22 K, 15000 kPa, m1 = 0.6588",838.59 ± 0.54 kg/m3
same,mass density,"323.22 K, 19991 kPa, m1 = 0.1082",794.09 ± 0.55 kg/m3
same,mass density,"323.22 K, 20010 kPa, m1 = 0.6588",842.96 ± 0.55 kg/m3
same,mass density,"323.22 K, 20014 kPa, m1 = 2.393",968.03 ± 0.59 kg/m3
same,mass density,"323.22 K, 24988 kPa, m1 = 0.6588",847.08 ± 0.56 kg/m3
same,mass density,"323.22 K, 24989 kPa, m1 = 0.1082",798.56 ± 0.56 kg/m3
same,mass density,"323.22 K, 25005 kPa, m1 = 2.393",971.52 ± 0.59 kg/m3
same,mass density,"323.22 K, 29988 kPa, m1 = 0.1082",802.81 ± 0.58 kg/m3
same,mass density,"323.22 K, 29988 kPa, m1 = 2.393",974.89 ± 0.6 kg/m3
same,mass density,"323.22 K, 30009 kPa, m1 = 0.6588",851.08 ± 0.58 kg/m3
same,mass density,"323.22 K, 34980 kPa, m1 = 2.393",978.17 ± 0.6 kg/m3
same,mass density,"323.22 K, 34991 kPa, m1 = 0.1082",806.89 ± 0.6 kg/m3
same,mass density,"323.22 K, 35005 kPa, m1 = 0.6588",854.89 ± 0.59 kg/m3
same,mass density,"323.22 K, 39995 kPa, m1 = 0.1082",810.79 ± 0.62 kg/m3
same,mass density,"323.22 K, 39995 kPa, m1 = 0.6588",858.56 ± 0.6 kg/m3
same,mass density,"323.22 K, 40017 kPa, m1 = 2.393",981.39 ± 0.6 kg/m3
same,mass density,"323.23 K, 226 kPa, m1 = 0.2853",790.12 ± 0.5 kg/m3
same,mass density,"323.23 K, 5015 kPa, m1 = 0.2853",795.26 ± 0.51 kg/m3
same,mass density,"323.23 K, 9993 kPa, m1 = 0.2853",800.3 ± 0.52 kg/m3
same,mass density,"323.23 K, 14993 kPa, m1 = 0.2853",805.07 ± 0.53 kg/m3
same,mass density,"323.23 K, 20003 kPa, m1 = 0.2853",809.62 ± 0.55 kg/m3
same,mass density,"323.23 K, 25013 kPa, m1 = 0.2853",813.96 ± 0.56 kg/m3
same,mass density,"323.23 K, 30015 kPa, m1 = 0.2853",818.08 ± 0.58 kg/m3
same,mass density,"323.23 K, 34988 kPa, m1 = 0.2853",821.99 ± 0.6 kg/m3
same,mass density,"323.23 K, 40005 kPa, m1 = 0.2853",825.78 ± 0.61 kg/m3
same,mass density,"348.23 K, 303 kPa, m1 = 2.393",928.79 ± 0.57 kg/m3
same,mass density,"348.23 K, 4983 kPa, m1 = 2.393",933.12 ± 0.57 kg/m3
same,mass density,"348.23 K, 9990 kPa, m1 = 2.393",937.54 ± 0.57 kg/m3
same,mass density,"348.23 K, 15005 kPa, m1 = 2.393",941.76 ± 0.58 kg/m3
same,mass density,"348.23 K, 20000 kPa, m1 = 2.393",945.79 ± 0.58 kg/m3
same,mass density,"348.23 K, 24993 kPa, m1 = 2.393",949.65 ± 0.59 kg/m3
same,mass density,"348.23 K, 29995 kPa, m1 = 2.393",953.38 ± 0.59 kg/m3
same,mass density,"348.23 K, 35000 kPa, m1 = 2.393",956.97 ± 0.59 kg/m3
same,mass density,"348.23 K, 39984 kPa, m1 = 2.393",960.44 ± 0.6 kg/m3
same,mass density,"348.24 K, 308 kPa, m1 = 0.1082",748.93 ± 0.48 kg/m3
same,mass density,"348.24 K, 321 kPa, m1 = 0.6588",799.27 ± 0.5 kg/m3
same,mass density,"348.24 K, 326 kPa, m1 = 0.2853",765.1 ± 0.48 kg/m3
same,mass density,"348.24 K, 4986 kPa, m1 = 0.6588",804.77 ± 0.51 kg/m3
same,mass density,"348.24 K, 5001 kPa, m1 = 0.2853",770.94 ± 0.5 kg/m3
same,mass density,"348.24 K, 5010 kPa, m1 = 0.1082",755.08 ± 0.49 kg/m3
same,mass density,"348.24 K, 9985 kPa, m1 = 0.1082",761.11 ± 0.51 kg/m3
same,mass density,"348.24 K, 9995 kPa, m1 = 0.6588",810.3 ± 0.52 kg/m3
same,mass density,"348.24 K, 9998 kPa, m1 = 0.2853",776.76 ± 0.51 kg/m3
